Here are results for 28 compounds from patent US20230073512A1, “MODULATORS OF CULLIN 3 ADAPTOR KBTBD4 AS ANTI-CANCER COMPOUNDS” (UNIVERSITE DE MONTREAL, priority 2019, published 2023).

Data set [1] is described as follows: PK assays in mice, intravenous and oral.
Description: PK assays were performed in mice (n=3). […] The following pharmacokinetic parameters were calculated.
The compounds were orally administered at 20 mg/kg and plasma samples were collected at 15, 30 minutes and 1, 2, 4, 6 and 8 hours after administration. The following pharmacokinetic parameters were calculated.
The target in data set [2] is T1, RCOR1, LSD1, HDAC2 in OCI-AML1 cells (Homo sapiens, UniProt O60341+Q92769+Q9UKL0).
T1 construct: nucleoplasmic proteins extracted from shLuc or shKBTBD4- transduced OCI-AML1 cells; endogenous in cells; host or cells: OCI-AML1 cells transduced with shLuc or shKBTBD4
The experiment in a line: Western Blot of CoREST members. It counts as cell-based. As to conditions: OCI-AML1, UM171 250 nM plus MG132 10 μM or MLN2494 100 nM. On the procedure:
Representative blots (upper panel) showing KBTBD4, RCOR1, LSD1, HDAC2 and Nucleolin (NCL, loading control) protein levels. Quantification of RCOR1 protein levels were evaluated in 3 independent experiments (lower panel).
Representative blots (upper panel) showing CUL3, RCOR1 and TUBA (loading control) protein levels. Quantification of RCOR1 protein levels were evaluated in 2 independent experiments (lower panel).
(§1) Total protein extraction was performed in lysis buffer (25 mM tris ph7.5, 150 mM NaCl, 1% NP-40, protease inhibitors).
On the technique in general: A western blot detects proteins with antibodies after separation by electrophoresis.

The subject of data set [3] is CD201 and CD86 in OCI-AML1 cells. As to the kind of experiment: Flow cytometry of CD201 and CD86 surface expression. As to conditions: Panobinostat 5 nM, TCP 5 μM. It counts as cell-based. The procedure:
(§2) Mouse anti-human antibodies were used to detect CD34 (APC or BV421-BD Biosciences), CD45RA (PE-BD Biosciences), CD86 (PerCP-eFluor710-eBioscience), CD90 (PECY7- BioLegend), and CD201 (APC-BioLegend). Flow cytometry acquisitions were performed on a Canto II cytometer (BD Biosciences) and data analysis was performed using FowJo software (Tree Star, Ashland, Oreg., USA) and GraphPad Prism software. Dead cells were excluded using 7AAD staining.
A general note: In flow cytometry, cells or beads pass a laser one at a time.

Another data set relates to CD34+ cord blood cells. The settings on record: 7 days culture, UM171 at 5 nM and LSD1 inhibitor (TCP). On the procedure:
as §2

For data set [4], the system named is H3K27Ac and H3K4me2 in OCI-AML5. The experiment in a line: Flow cytometry of H3K27Ac, H3K4me2 and H3. It is filed as cell-based. The settings on record: OCI-AML5, 24 hrs; UM171 250 nM, Panobinostat 5 nM, TCP 10 μM.
The test system of data set [5] is CD201 and CD86 in OCI-AML5. The experiment in a line: FACS analysis of CD201 and CD86. It counts as cell-based. As to conditions: OCI-AML5, 24 hrs; UM171 250 nM, Panobinostat 5 nM, TCP 10 μM. The procedure: as §2
For the next data set, the system named is CB. As to the kind of experiment: Cell proliferation, CB sample of Table 2. As to conditions: read-out: Antineoplastic effect on cell proliferation, IC50.
A further data set concerns AML samples. As to the kind of experiment: Cell proliferation of cancerous samples from patients.
Another data set relates to AML3. The experiment in a line: Cell proliferation of cancerous cell lines. It counts as cell-based. As to conditions: AML3; read-out: Antineoplastic effect of tested compounds on cell proliferation of cancerous AML3 cells, IC50.
In data set [6] the target is T2, RCOR1, LSD1, HDAC2 in CD34+ derived cord blood cells (Homo sapiens, UniProt O60341+Q92769+Q9UKL0).
T2 construct: total proteins extracted from d3 expanded CD34+ derived cord blood cells; endogenous in cells; host or cells: d3 expanded human CD34+ cord blood derived cells (primary)
The experiment in a line: Western Blot of CoREST members in CD34+ cells. As to conditions: UM171 500 nM / MG132 5 μM, 4 hrs. It is filed as cell-based. On the procedure: FIG. 15A illustrate a Western Blot analysis of total proteins extracted from d3 expanded CD34+ derived cord blood cells exposed to DMSO, UM171 (500 nM) or UM171/MG132 (5 μM) for 4 hrs. Representative blot showing KBTBD4, RCOR1, LSD1, HDAC2, CUL3 and TUBA as loading control.
as §1

Setting [7] is: orally administered at 20 mg/kg.

Where two headings read alike, the source gives them in different places. Residues, ends and D or L forms follow the SMILES beside them. *: point of attachment. Cbz = O=C(OCc1ccccc1)* Bounds are passed on as bounds.

`COC(=O)c1ccc2c(c1)[nH]c1ncnc(NCCCN3CCCCC3)c12` [UM729]: in data set [1] (setting [7]), the “area under the curve (AUC)” value amounted to 1.2 µM·h, the “bioavailability (% F)” value is 19% and the “maximal time (tmax)” value amounted to 48 min. Moreover, the Cmax in data set [1] (read-out: maximal concentration (Cmax), orally administered at 20 mg/kg) came to 200 nM.

Consider `NS(=O)(=O)OC[C@@H]1C[C@@H](n2ccc3c(N[C@H]4CCc5ccccc54)ncnc32)C[C@@H]1O` [MLN2494], for which the “UM171-induced loss of RCOR1 under co-treatment” value in data set [2] is recorded as “normal”.

Take `N[C@@H]1C[C@H]1c1ccccc1` (racemic) [TCP, tranylcypromine]: in [3], the “CD86 expression in shKBTBD4 expressing cells” value is listed as “induces”. In addition, the “CD34+, CD34+CD201+CD90+ and CD34+CD86+ subsets, combination with UM171” value in the data set on CD34+ cord blood cells was “synergistic effect”. For the same compound, the “H3K27Ac and H3K4me2 marks” value in [4] is “induces”. Also, the “CD201 and CD86 expression compared to DMSO” value in data set [5] was “upregulation”.

Turning to `COC(=O)c1ccc2[nH]c3nc(Cc4ccccc4)nc(NCCCN4CCCCC4)c3c2c1` [UM134], the IC50 was 1 to 10 µM in the data set on CB; 1 to 10 µM with AML samples (read-out: Antineoplastic effect on cell proliferation, IC50, AML sample 04H063); 1 to 10 µM in the data set with AML samples (read-out: Antineoplastic effect on cell proliferation, IC50, AML sample 05H094); 1 to 10 µM with AML samples (read-out: Antineoplastic effect on cell proliferation, IC50, AML sample 05H149); 1 to 10 µM in the data set with AML samples (read-out: Antineoplastic effect on cell proliferation, IC50, AML sample 06H045); 1 to 10 µM in the data set with AML samples (read-out: Antineoplastic effect on cell proliferation, IC50, AML sample 06H088). Also, the IC50 is 1 to 10 µM in the data set with AML samples (read-out: Antineoplastic effect on cell proliferation, IC50, AML sample 06H117); 1 to 10 µM in the data set with AML samples (read-out: Antineoplastic effect on cell proliferation, IC50, AML sample 07H005); 1 to 10 µM in the data set with AML samples (read-out: Antineoplastic effect on cell proliferation, IC50, AML sample 07H038); 1 to 10 µM with AML samples (read-out: Antineoplastic effect on cell proliferation, IC50, AML sample 07H045); 1 to 10 µM in the data set with AML samples (read-out: Antineoplastic effect on cell proliferation, IC50, AML sample 07H125); 1 to 10 µM in the data set on AML samples (read-out: Antineoplastic effect on cell proliferation, IC50, AML sample 07H135). Besides, the IC50 in the data set on AML samples (read-out: Antineoplastic effect on cell proliferation, IC50, AML sample 07H151) is 1 to 10 µM; in the data set on AML samples (read-out: Antineoplastic effect on cell proliferation, IC50, AML sample 08H018), 1 to 10 µM; with AML samples (read-out: Antineoplastic effect on cell proliferation, IC50, AML sample 09H010), 1 to 10 µM; in the data set with AML samples (read-out: Antineoplastic effect on cell proliferation, IC50, AML sample 09H046), 1 to 10 µM; with AML samples (read-out: Antineoplastic effect on cell proliferation, IC50, AML sample 09H079), 1 to 10 µM; in the data set on AML samples (read-out: Antineoplastic effect on cell proliferation, IC50, AML sample 09H115), 1 to 10 µM. Moreover, the IC50 was 1 to 10 µM in the data set on AML samples (read-out: Antineoplastic effect on cell proliferation, IC50, AML sample 10H022); 1 to 10 µM in the data set on AML samples (read-out: Antineoplastic effect on cell proliferation, IC50, AML sample 10H127); 1 to 10 µM in the data set with AML samples (read-out: Antineoplastic effect on cell proliferation, IC50, AML sample 11H002); 1 to 10 µM in the data set with AML samples (read-out: Antineoplastic effect on cell proliferation, IC50, AML sample 11H046); 1 to 10 µM in the data set on AML samples (read-out: Antineoplastic effect on cell proliferation, IC50, AML sample 11H103); 1 to 10 µM with AML samples (read-out: Antineoplastic effect on cell proliferation, IC50, AML sample 12H045). Moreover, the IC50 in the data set on AML samples (read-out: Antineoplastic effect on cell proliferation, IC50, AML sample 12H058) is 1 to 10 µM; with AML samples (read-out: Antineoplastic effect on cell proliferation, IC50, AML sample 12H096) it was 1 to 10 µM; in the data set on AML samples (read-out: Antineoplastic effect on cell proliferation, IC50, AML sample 12H106), 1 to 10 µM; in the data set on AML samples (read-out: Antineoplastic effect on cell proliferation, IC50, AML sample 12H151) it was 1 to 10 µM; in the data set with AML samples (read-out: Antineoplastic effect on cell proliferation, IC50, AML sample 13H100), 1 to 10 µM; in the data set on AML samples (read-out: Antineoplastic effect on cell proliferation, IC50, AML sample 13H150), 1 to 10 µM.

For the compound `COC(=O)c1cnc2c(c1)[nH]c1nc(Cc3ccc4ccccc4c3)nc(N3CCC(N4CCCC4)CC3)c12`, the IC50 with AML3 lay within 0.5 to 1 µM.

Turning to `COC(=O)c1ccc2c(c1)[nH]c1nc(Cc3ccsc3)nc(NCCCN3CCCCC3)c12`, the IC50 in the data set on AML3 lay in the range of 1 to 2 µM.

Consider `COC(=O)c1ccc2c(c1)[nH]c1nc(Cc3cccc(OC)c3)nc(NCCCN3CCCCC3)c12`, for which the IC50 in the data set on AML3 fell in the range of 2 to 5 µM.

Regarding `Cn1nnc(-c2ccc3c(c2)[nH]c2nc(Cc4ccccc4)nc(NCCN)c23)n1`, the IC50 with AML3 was 1 to 2 µM.

As for `COC(=O)c1ccc2c(c1)[nH]c1ncnc(NCc3ccccc3CN(C)C)c12`, in the data set on AML3, the IC50 is under 0.5 µM.

For the compound `COC(=O)c1ccc2c(c1)[nH]c1ncnc(NCC#CCN3CCCCC3)c12`, the IC50 in the data set with AML3 was 2 to 5 µM.

Regarding `CNS(=O)(=O)c1cccc(Nc2ncnc3[nH]c4cc(C(=O)OC)ccc4c23)c1`, the IC50 with AML3 was under 0.5 µM.

With `COC(=O)c1ccc2c(c1)[nH]c1nc(Cc3ccccc3)nc(Nc3cccc(N)c3)c12`, the IC50 in the data set with AML3 was 2 to 5 µM.

`COC(=O)c1ccc2c3c(N(C)CCCN4CCCCC4)ncnc3n(C)c2c1`: in the data set with AML3, the IC50 lay in the range of 2 to 5 µM.

With `CNCCCNc1nc(Cc2ccccc2)nc2[nH]c3cc(C(=O)OC)ccc3c12`, in the data set with AML3, the IC50 was in the range of 1 to 2 µM.

Turning to `COC(=O)c1cnc2c(c1)Cc1nc(Cc3ccccc3)nc(NCCCN(C)CCCNc3nc(Cc4ccccc4)nc4[nH]c5cc(C(=O)OC)cnc5c34)c1-2`, the IC50 in the data set on AML3 is under 0.5 µM.

For `COC(=O)c1ccc2c(c1)[nH]c1nc(Cc3ccccc3C)nc(NCCCN3CCCCC3)c12`, the IC50 with AML3 is 1 to 2 µM.

Consider `COC(=O)c1ccc2c(c1)[nH]c1nc(Cc3cccs3)nc(NCCCN3CCCCC3)c12`, for which the IC50 in the data set with AML3 lay within 2 to 5 µM.

In the case of `CC(C)C[C@@H](C=O)NC(=O)[C@H](CC(C)C)NC(=O)[C@H](CC(C)C)NC(=O)OCc1ccccc1` [MG132] (Cbz-Leu-Leu-Leu-aldehyde), in data set [6], the “UM171-induced loss of LSD1 and RCOR1 proteins under co-treatment” value is on record as “abolishes the loss”. Further, the “UM171-induced loss of RCOR1 under co-treatment” value in [2] is on record as “reduced”.

For `Cn1nnc(-c2ccc3c(c2)[nH]c2nc(Cc4ccccc4)nc(NCCCCCCCCCCN)c23)n1`, the IC50 in the data set on AML3 was in the range of 1 to 2 µM.

In the case of `Cn1nnc(-c2ccc3c(c2)[nH]c2ncnc(NCCCN4CCCCC4)c23)n1` [drawing 53], in the data set with AML3, the IC50 was in the range of 1 to 2 µM.

`COC(=O)c1ccc2c(c1)[nH]c1nc(Nc3ccccc3)nc(NCCCN3CCCCC3)c12`: the IC50 with AML3 fell in the range of 1 to 2 µM.

Turning to `COC(=O)c1ccc2c(c1)[nH]c1ncnc(NCCCN3CCCCC3)c12` [drawing 45], the IC50 with AML3 fell in the range of 2 to 5 µM.

For the compound `COC(=O)c1ccc2c(c1)[nH]c1nc(Cc3ccccc3)nc(CCCCN3CCCCC3)c12`, the IC50 with AML3 is 1 to 2 µM.

Consider `C#CCOC(CNc1nc(Cc2ccccc2)nc2[nH]c3cc(C(=O)OC)ccc3c12)CN1CCCCC1` (stereo not shown), for which the IC50 in the data set with AML3 was 2 to 5 µM.

Consider `Cn1nnc(-c2ccc3c(c2)[nH]c2nc(Cc4ccccc4)nc(N[C@H]4CC[C@H](N(C)C)CC4)c23)n1`, for which the IC50 in the data set on AML3 is 0.5 to 1 µM.

Turning to `Cc1nc(-c2ccc3c(c2)[nH]c2nc(Cc4ccccc4)nc(NCCCN4CCCCC4)c23)no1`, the IC50 with AML3 was 1 to 2 µM.

`COC(=O)c1ccc2c(c1)[nH]c1nc(C)nc(NCCCN(C)CCCN)c12`: in the data set with AML3, the IC50 was 2 to 5 µM.

As for `COC(=O)c1ccc2c(c1)[nH]c1nc(C(=O)c3ccccc3)nc(NCCCN3CCCCC3)c12`, the IC50 in the data set with AML3 was in the range of 2 to 5 µM.
